The values that follow come from US20230233569A1 (Revolution Medicines, Inc., priority 2020, published 2023).

One experiment concerns the target KRAS Q61H (Homo sapiens, UniProt P01116+P62937, Q61H). Put plainly: Disruption of BRAF RBD interaction with Ras (FRET / MOA assay, with Cyclophilin A). The experiment is classed as biochemical. The conditions noted are these: KRAS Q61H; read-out: KRAS Q61H FRET data IC50. The method, boiled down: (§1)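 IC50 reflects compound-driven Ras:Cyclophilin A ternary complex displacing BRAF RBD, read as lowered TR-FRET ratio relative to DMSO after Eu anti-His (10 nM) and APC anti-GST (50 nM) detection for 1.5 h. Prior incubation 3 h, 25° C, with 12.5 nM GMPPNP-loaded Ras, 50 nM BRAF RBD, 25 μM Cyclophilin A; top compound 30 μM.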

Another experiment has as its target NRAS Q61K (Homo sapiens, UniProt P01111+P62937, Q61K). The experiment is described as above. The class given is biochemical. The conditions noted are these: NRAS Q61K; read-out: NRAS Q61K FRET data IC50. The method, boiled down: as §1
For a further experiment, the target named is NRAS WT (Homo sapiens, UniProt P01111+P62937). The description is as above. The conditions noted are these: NRAS WT; read-out: NRAS WT FRET data IC50. The class given is biochemical. The method, boiled down:
as §1

The next experiment addresses NRAS Q61R (Homo sapiens, UniProt P01111+P62937, Q61R). Described as above. The experiment is classed as biochemical. The conditions noted are these: NRAS Q61R; read-out: NRAS Q61R FRET data IC50. The method, boiled down:
as §1

A further experiment has as its target KRAS WT (Homo sapiens, UniProt P01116+P62937). The description is as above. The conditions noted are these: KRAS WT; read-out: KRAS WT FRET data IC50. The class given is biochemical. Put shortly: (§2)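 Here, compound titrations (ten points, factor 3, from 30 μM final) act on nucleotide-bound K-Ras and Cyclophilin A, and ternary complex formation disrupts the RAF RBD interaction.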

The target in a further experiment is NRAS G12C (Homo sapiens, UniProt P01111+P62937, G12C). Described as above. The class given is biochemical. The conditions noted are these: NRAS G12C; read-out: NRAS G12C FRET data IC50.
NRAS G12C, sequence (P01111 whole entry G12C): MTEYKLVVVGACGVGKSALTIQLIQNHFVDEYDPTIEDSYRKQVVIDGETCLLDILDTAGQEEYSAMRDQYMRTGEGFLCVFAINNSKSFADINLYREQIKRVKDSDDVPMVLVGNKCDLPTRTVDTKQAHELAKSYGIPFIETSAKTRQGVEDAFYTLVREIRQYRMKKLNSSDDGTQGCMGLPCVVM
NRAS G12C, sequence (P62937 whole entry): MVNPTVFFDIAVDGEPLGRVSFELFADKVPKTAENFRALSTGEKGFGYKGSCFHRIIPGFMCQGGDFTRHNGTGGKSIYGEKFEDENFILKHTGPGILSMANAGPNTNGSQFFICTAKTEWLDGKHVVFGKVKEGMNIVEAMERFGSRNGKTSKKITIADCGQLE
The target of a further experiment is KRAS G12V (Homo sapiens, UniProt P01116+P62937, G12V). Described as above. The class given is biochemical. The conditions noted are these: KRAS G12V; read-out: KRAS G12V FRET data IC50. The method, boiled down: as §2
KRAS G12V, sequence (P01116 1-169 isoform P01116-2 G12V limits assumed): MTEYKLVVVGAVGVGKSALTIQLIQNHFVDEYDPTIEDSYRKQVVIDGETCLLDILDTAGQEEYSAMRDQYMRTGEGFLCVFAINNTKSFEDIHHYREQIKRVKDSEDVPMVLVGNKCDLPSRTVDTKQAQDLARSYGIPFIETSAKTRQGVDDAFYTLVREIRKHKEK
KRAS G12V, sequence (P62937 whole entry): as the sequence (P62937 whole entry) above
For the next experiment, the target named is KRAS G12D (Homo sapiens, UniProt P01116+P62937, G12D). The description is as above. The class given is biochemical. The conditions noted are these: read-out: KRAS G12D FRET data, IC50. The method, boiled down: as §2
KRAS G12D, sequence (P01116 1-169 isoform P01116-2 G12D limits assumed): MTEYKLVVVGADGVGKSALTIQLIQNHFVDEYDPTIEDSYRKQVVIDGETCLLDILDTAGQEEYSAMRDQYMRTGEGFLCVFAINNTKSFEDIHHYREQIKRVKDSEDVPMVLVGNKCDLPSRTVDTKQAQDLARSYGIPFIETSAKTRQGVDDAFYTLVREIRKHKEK
KRAS G12D, sequence (P62937 whole entry): as the sequence (P62937 whole entry) above
In the next experiment the target is KRAS G13C (Homo sapiens, UniProt P01116+P62937, G13C). The experiment is described as above. The class given is biochemical. The conditions noted are these: read-out: KRAS G13C FRET data, IC50. Put shortly: as §2
KRAS G13C, sequence (P01116 1-169 isoform P01116-2 G13C): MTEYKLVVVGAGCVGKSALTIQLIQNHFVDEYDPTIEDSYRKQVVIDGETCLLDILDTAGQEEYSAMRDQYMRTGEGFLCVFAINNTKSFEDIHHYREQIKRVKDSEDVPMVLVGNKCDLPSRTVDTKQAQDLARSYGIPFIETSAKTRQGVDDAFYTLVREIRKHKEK
KRAS G13C, sequence (P62937 whole entry): as the sequence (P62937 whole entry) above
A further experiment deals with KRAS G12S (Homo sapiens, UniProt P01116+P62937, G12S). The description is as above. The experiment is classed as biochemical. The conditions noted are these: read-out: KRAS G12S FRET data, IC50. Put shortly:
as §2

The next experiment deals with KRAS G13D (Homo sapiens, UniProt P01116+P62937, G13D). The experiment is described as above. The class given is biochemical. The conditions noted are these: KRAS G13D; read-out: KRAS G13D FRET data IC50. The method, boiled down: as §2
KRAS G13D, sequence (P01116 1-169 isoform P01116-2 G13D limits assumed): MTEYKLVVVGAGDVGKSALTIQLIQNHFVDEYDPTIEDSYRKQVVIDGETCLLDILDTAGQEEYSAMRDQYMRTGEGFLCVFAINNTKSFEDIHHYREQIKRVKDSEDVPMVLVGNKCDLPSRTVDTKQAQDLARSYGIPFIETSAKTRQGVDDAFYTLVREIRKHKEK
KRAS G13D, sequence (P62937 whole entry): as the sequence (P62937 whole entry) above
The next experiment deals with KRAS G12C (Homo sapiens, UniProt P01116+P62937, G12C). Described as above. The class given is biochemical. The conditions noted are these: read-out: KRAS G12C FRET data, IC50. The method, boiled down: as §2
KRAS G12C, sequence (P01116 1-169 isoform P01116-2 G12C): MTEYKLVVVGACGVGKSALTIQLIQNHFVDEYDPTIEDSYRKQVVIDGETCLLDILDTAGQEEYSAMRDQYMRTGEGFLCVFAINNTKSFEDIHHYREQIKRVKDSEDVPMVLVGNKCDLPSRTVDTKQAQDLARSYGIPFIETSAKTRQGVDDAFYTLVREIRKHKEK
KRAS G12C, sequence (P62937 whole entry): as the sequence (P62937 whole entry) above
In a further experiment the test system is NCI-H358 (K-Ras G12C). In words: CellTiter-Glo cell viability assay, 5-day treatment. The class given is cell-based. The conditions noted are these: Homo sapiens, NCI-H358, 120 h, 5-day treatment; read-out: H358 Cell Viability assay data (K-Ras G12C, IC50). The method, boiled down:
(§3)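 Luminescence read-out after 5 days of compound exposure, with plates first brought to room temperature for roughly 30 minutes. Values are percent of averaged DMSO wells, fitted by four-parameter logistic regression.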

Another experiment has as its system Capan-1 (K-Ras G12V). The description is as above. The class given is cell-based. The conditions noted are these: Homo sapiens, CAPAN-1, 120 h, 5-day treatment; read-out: Capan-1 Cell Viability assay data (K-Ras G12V, IC50). Put shortly:
as §3

NRAS Q61K, sequence (P01111 whole entry Q61K): as the sequence (P01111 whole entry G12C) above, with C12G, Q61K counted along it
NRAS Q61K, sequence (P62937 whole entry): as the sequence (P62937 whole entry) above
KRAS G12S, sequence (P01116 1-169 isoform P01116-2 G12S limits assumed): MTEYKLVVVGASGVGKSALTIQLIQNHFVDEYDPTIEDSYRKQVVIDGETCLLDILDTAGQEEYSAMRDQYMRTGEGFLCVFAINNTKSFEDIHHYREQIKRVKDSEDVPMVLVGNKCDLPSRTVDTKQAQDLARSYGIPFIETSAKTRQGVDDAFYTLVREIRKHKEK
KRAS G12S, sequence (P62937 whole entry): as the sequence (P62937 whole entry) above
KRAS WT, sequence (P01116 1-169 isoform P01116-2 limits assumed): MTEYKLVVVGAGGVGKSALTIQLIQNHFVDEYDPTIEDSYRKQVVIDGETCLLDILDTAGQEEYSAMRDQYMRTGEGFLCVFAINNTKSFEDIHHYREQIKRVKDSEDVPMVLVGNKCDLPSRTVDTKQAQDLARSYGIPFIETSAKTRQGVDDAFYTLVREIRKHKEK
KRAS WT, sequence (P62937 whole entry): as the sequence (P62937 whole entry) above
NRAS WT, sequence (P01111 whole entry): as the sequence (P01111 whole entry G12C) above, with C12G counted along it
NRAS WT, sequence (P62937 whole entry): as the sequence (P62937 whole entry) above
KRAS Q61H, sequence (P01116 1-169 isoform P01116-2 Q61H limits assumed): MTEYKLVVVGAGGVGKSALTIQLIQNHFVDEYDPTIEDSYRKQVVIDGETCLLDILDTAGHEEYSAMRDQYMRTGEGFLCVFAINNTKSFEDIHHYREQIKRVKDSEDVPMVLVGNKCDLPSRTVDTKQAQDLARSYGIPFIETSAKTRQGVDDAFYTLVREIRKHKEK
KRAS Q61H, sequence (P62937 whole entry): as the sequence (P62937 whole entry) above
NRAS Q61R, sequence (P01111 whole entry Q61R): as the sequence (P01111 whole entry G12C) above, with C12G, Q61R counted along it
NRAS Q61R, sequence (P62937 whole entry): as the sequence (P62937 whole entry) above

For the compound `CCn1c(-c2cccnc2[C@H](C)OC)c2c3cc(ccc31)-c1csc(n1)C[C@H](NC(=O)[C@H](C(C)C)N(C)C(=O)N1CC(C#N)C1)C(=O)N1CCC[C@H](N1)C(=O)OCC(C)(C)C2` (atropisomer, axis not shown) [Example A382], the IC50 on KRAS Q61H is 10 to 100 nM; on NRAS Q61K it was 10 to 100 nM; on NRAS WT it was 100 to 1000 nM; at NRAS Q61R, 100 to 1000 nM; on KRAS WT it was 100 to 1000 nM; on NRAS G12C it was 10 to 100 nM. Moreover, the IC50 was in the range of 100 to 1000 nM at KRAS G12V; 100 to 1000 nM at KRAS G12D; 100 to 1000 nM at KRAS G13C; 100 to 1000 nM on KRAS G12S; 100 to 1000 nM on KRAS G13D; 10 to 100 nM on KRAS G12C. Besides, the IC50 in the experiment on NCI-H358 (K-Ras G12C) is under 10 nM; with Capan-1 (K-Ras G12V), 10 to 100 nM.
For the compound `CCn1c(-c2cc(N3CCN(C)CC3)cnc2[C@H](C)OC)c2c3cc(ccc31)-c1cc(O)cc(c1)C[C@H](NC(=O)[C@H](C(C)C)N(C)C(=O)[C@@H]1OCC[C@@H]1c1ccccc1)C(=O)N1CCC[C@H](N1)C(=O)OCC(C)(C)C2` (atropisomer, axis not shown) [Example A594], the IC50 on KRAS Q61H is under 10 nM; at NRAS Q61K, 10 to 100 nM; on NRAS WT, under 10 nM; on NRAS Q61R it was under 10 nM; at KRAS WT, under 10 nM; on NRAS G12C, under 10 nM. Further, the IC50 on KRAS G12V was 10 to 100 nM; at KRAS G12D, 10 to 100 nM; on KRAS G13C, under 10 nM; on KRAS G12S, under 10 nM; at KRAS G13D, 10 to 100 nM; at KRAS G12C, under 10 nM. Further, the IC50 in the experiment with NCI-H358 (K-Ras G12C) and with Capan-1 (K-Ras G12V) was under 10 nM each time.
For `CCn1c(-c2cccnc2[C@H](C)OC)c2c3cc(ccc31)-c1csc(n1)C[C@H](NC(=O)[C@H](C(C)C)N(C)C(=O)N(C)C)C(=O)N1CCC[C@H](N1)C(=O)OCC(C)(C)C2` (racemic) [Example A136], the IC50 lay within 10 to 100 nM at KRAS Q61H; 10 to 100 nM on NRAS Q61K; 10 to 100 nM on NRAS WT; 10 to 100 nM on NRAS Q61R; 100 to 1000 nM on KRAS WT; 10 to 100 nM on NRAS G12C. The IC50 on KRAS G12V fell in the range of 100 to 1000 nM; on KRAS G12D it was 100 to 1000 nM; on KRAS G13C it was 100 to 1000 nM; on KRAS G12S, 100 to 1000 nM; on KRAS G13D it was 100 to 1000 nM; at KRAS G12C, 10 to 100 nM. Moreover, the IC50 is under 10 nM with NCI-H358 (K-Ras G12C) and 10 to 100 nM with Capan-1 (K-Ras G12V).
As for `CCn1c(-c2cccnc2[C@H](C)OC)c2c3cc(ccc31)-c1csc(n1)C[C@H](NC(=O)[C@H](C(C)C)N(C)C(=O)N1CCC3(CC1)CN(C)CCO3)C(=O)N1CCC[C@H](N1)C(=O)OCC(C)(C)C2` [Example A433], the IC50 on KRAS Q61H, on NRAS Q61K, on NRAS WT, on NRAS Q61R, at KRAS WT and on NRAS G12C was 100 to 1000 nM in each case. Further, the IC50 at KRAS G12V fell in the range of 100 to 1000 nM; at KRAS G12D, 1000 to 10000 nM; at KRAS G13C, 100 to 1000 nM; at KRAS G12S, 100 to 1000 nM; on KRAS G13D, 100 to 1000 nM; on KRAS G12C, 100 to 1000 nM. For the same compound, the 50% inhibitory concentration (IC50) in the experiment on NCI-H358 (K-Ras G12C) and in the experiment with Capan-1 (K-Ras G12V) was 10 to 100 nM each time.
On to `CCn1c(-c2cccnc2[C@H](C)OC)c2c3cc(ccc31)-c1cc(O)cc(c1)C[C@H](NC(=O)[C@H](C(C)C)N(C)C(=O)C1CCC(C3CCCO3)O1)C(=O)N1CCC[C@H](N1)C(=O)OCC(C)(C)C2` (stereo partly shown) [Example A396], for which the 50% inhibitory concentration (IC50) at KRAS Q61H, at NRAS Q61K, on NRAS WT, at NRAS Q61R, at KRAS WT and at NRAS G12C was 10 to 100 nM throughout. Moreover, the IC50 lay in the range of 10 to 100 nM at KRAS G12V; 100 to 1000 nM at KRAS G12D; 10 to 100 nM on KRAS G13C; 10 to 100 nM on KRAS G12S; 10 to 100 nM at KRAS G13D; 10 to 100 nM on KRAS G12C. The IC50 in the experiment with NCI-H358 (K-Ras G12C) and with Capan-1 (K-Ras G12V) was 100 to 1000 nM in each case.
